For 16 compounds, T/C results are on record in PubChem BioAssay AID330 (DTP/NCI, 2004).

Each structure is given as a SMILES string. Several values for one entry are separate records, joined by “and”; a condition that tells them apart may be missing. Equal entries are not always repeated. Toxic doses and inconclusive results are not listed.

The subject of this assay is P388 leukemia ip, CD2F1 mice, survival T/C. As to the kind of experiment: NCI In Vivo Anticancer Drug Screen. Data for tumor model P388 Leukemia (intraperitoneal) in CD2F1 (CDF1) mice. The following applies: endpoint: median survival time, higher = longer survival. Summed up:
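Mice carrying the transplanted tumor received test compound or vehicle. Survival was recorded in each group, and the value is the treated-group measurement divided by that of the vehicle-treated control group.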

The mark [1] stands for this setting: dose: 50.0 mg/kg/injection, schedule: Q01DX009 (ip), vehicle: Klucel (hydroxypropylcellulose) (HPC).
The mark [2] stands for this setting: dose: 25.0 mg/kg/injection, schedule: Q01DX009 (ip), vehicle: saline with Tween-80.
Where [3] appears, read: dose: 50.0 mg/kg/injection, schedule: Q01DX009 (ip), vehicle: saline with Tween-80.
Where [4] appears, read: dose: 100.0 mg/kg/injection, schedule: Q01DX009 (ip), vehicle: saline with Tween-80.
The mark [5] stands for this setting: dose: 12.5 mg/kg/injection, schedule: Q01DX009 (ip), vehicle: saline.
The mark [6] stands for this setting: dose: 25.0 mg/kg/injection, schedule: Q01DX009 (ip), vehicle: saline.
[7] abbreviates: dose: 50.0 mg/kg/injection, schedule: Q01DX009 (ip), vehicle: saline.
The mark [8] stands for this setting: dose: 100.0 mg/kg/injection, schedule: Q01DX009 (ip), vehicle: saline.
[9] abbreviates: dose: 200.0 mg/kg/injection, schedule: Q01DX009 (ip), vehicle: saline.
Where [10] appears, read: dose: 400.0 mg/kg/injection, schedule: Q01DX009 (ip), vehicle: saline.
[11] abbreviates: dose: 100.0 mg/kg/injection, schedule: Q04DX003 (ip), vehicle: saline with Tween-80.
Setting [12] is: dose: 200.0 mg/kg/injection, schedule: Q04DX003 (ip), vehicle: saline with Tween-80.
Setting [13] is: dose: 200.0 mg/kg/injection, schedule: Q01DX009 (ip), vehicle: saline with Tween-80.

Take `CCCSc1nc2ccc(NC(=O)/C=C/C(=O)O)cc2s1`: the T/C under setting [1] is 107 % of control; the T/C (dose: 100.0 mg/kg/injection, schedule: Q01DX009 (ip), vehicle: Klucel (hydroxypropylcellulose) (HPC)) was 96 % of control; the T/C (dose: 200.0 mg/kg/injection, schedule: Q01DX009 (ip), vehicle: Klucel (hydroxypropylcellulose) (HPC)) is 103 % of control.

Regarding `CC12C(=O)C=CCC1=CCC1C2CCC2(O)C(=O)OC3(C)C4CC5(C)C(COC16OC23C5C6=O)C(=O)O4` (stereo unspecified), the T/C by setting is: under setting [2], 96 % of control; under setting [3], 110 % of control; under setting [4], 120 % of control; (dose: 150.0 mg/kg/injection, schedule: Q01DX009 (ip), vehicle: Klucel (hydroxypropylcellulose) (HPC)) 121 % of control.

Turning to `CCOC(C)(OCC)N(C)C`, the T/C was 101 % of control (dose: 50.0 mg/kg/injection, schedule: Q01DX005 (ip), vehicle: saline); 108 % of control (dose: 100.0 mg/kg/injection, schedule: Q01DX005 (ip), vehicle: saline); 111 % of control (dose: 200.0 mg/kg/injection, schedule: Q01DX005 (ip), vehicle: saline).

`CC/C(=C(/CC)c1ccc(OCC(=O)N/N=C2/C=C3CCC4C(CCC5(C)C(O)CCC45)C3(C)CC2)cc1)c1ccc(OCC(=O)N/N=C2\C=C3CCC4C(CCC5(C)C(O)CCC45)C3(C)CC2)cc1` (stereo unspecified): the T/C reads like this: (dose: 50.0 mg/kg/injection, schedule: Q01DX001 (ip), vehicle: Klucel (hydroxypropylcellulose) (HPC)) 95 % of control; (dose: 100.0 mg/kg/injection, schedule: Q01DX001 (ip), vehicle: Klucel (hydroxypropylcellulose) (HPC)) 87 % of control.

For the compound `CNC(=O)OCc1c(COC(=O)NC)c(-c2ccc(Cl)cc2)n2c1CCC2`, the T/C (dose: 6.25 mg/kg/injection, schedule: Q01DX009 (ip), vehicle: Klucel (hydroxypropylcellulose) (HPC)) is 150 % of control; the T/C (dose: 12.5 mg/kg/injection, schedule: Q01DX009 (ip), vehicle: Klucel (hydroxypropylcellulose) (HPC)) is 94 % of control; the T/C (dose: 25.0 mg/kg/injection, schedule: Q01DX009 (ip), vehicle: Klucel (hydroxypropylcellulose) (HPC)) was 88 % of control; the T/C under setting [1] was 104 % of control.

As for `CSC(=S)N/N=C/c1nccc2ccccc12`, the T/C is 112 % of control (dose: 100.0 mg/kg/injection, schedule: Q01DX001 (ip), vehicle: saline with Tween-80); 108 % of control (dose: 200.0 mg/kg/injection, schedule: Q01DX001 (ip), vehicle: saline with Tween-80); 116 % of control (dose: 400.0 mg/kg/injection, schedule: Q01DX001 (ip), vehicle: saline with Tween-80).

Regarding `CN(C)c1n[nH]c(N)n1`, the T/C reads like this: under setting [5], 101 % of control; under setting [6], 103 % of control; under setting [7], 108 % of control and 95 % of control and 97 % of control; under setting [8], 103 % of control and 104 % of control and 108 % of control; under setting [9], 105 % of control and 97 % of control; under setting [10], 105 % of control and 111 % of control and 113 % of control.

For the compound `O=C(Cn1ccnc1[N+](=O)[O-])N(CCO)CCO`, the T/C reads like this: (dose: 6.25 mg/kg/injection, schedule: Q01DX009 (ip), vehicle: saline) 102 % of control; under setting [5], 111 % of control; under setting [6], 111 % of control; under setting [7], 105 % of control; under setting [8], 105 % of control; under setting [9], 102 % of control. Also, the T/C was 105 % of control under setting [10] and 102 % of control (dose: 800.0 mg/kg/injection, schedule: Q01DX009 (ip), vehicle: saline).

For `Cc1cccc(N=Nc2c(-c3ccccc3)nn(C(N)=S)c2-c2ccccc2)c1C`, the T/C by setting is: (dose: 73.9 mg/kg/injection, schedule: Q04DX002 (ip), vehicle: Klucel (hydroxypropylcellulose) (HPC)) 96 % of control; (dose: 147.0 mg/kg/injection, schedule: Q04DX002 (ip), vehicle: Klucel (hydroxypropylcellulose) (HPC)) 96 % of control; (dose: 295.0 mg/kg/injection, schedule: Q04DX002 (ip), vehicle: Klucel (hydroxypropylcellulose) (HPC)) 100 % of control.

As for `O=CN(c1ccccc1)c1ccccc1`, the T/C is, setting by setting: (dose: 50.0 mg/kg/injection, schedule: Q01DX009 (ip), vehicle: other) 95 % of control; (dose: 50.0 mg/kg/injection, schedule: Q04DX003 (ip), vehicle: saline with Tween-80) 107 % of control; (dose: 100.0 mg/kg/injection, schedule: Q01DX009 (ip), vehicle: other) 90 % of control; (dose: 100.0 mg/kg/injection, schedule: Q04DX003 (ip), vehicle: other) 91 % of control; under setting [11], 109 % of control; (dose: 200.0 mg/kg/injection, schedule: Q01DX009 (ip), vehicle: other) 90 % of control. The T/C by setting is: (dose: 200.0 mg/kg/injection, schedule: Q04DX003 (ip), vehicle: other) 87 % of control; under setting [12], 110 % of control; (dose: 400.0 mg/kg/injection, schedule: Q01DX009 (ip), vehicle: other) 100 % of control; (dose: 400.0 mg/kg/injection, schedule: Q04DX003 (ip), vehicle: other) 87 % of control; (dose: 400.0 mg/kg/injection, schedule: Q04DX003 (ip), vehicle: saline with Tween-80) 110 % of control; (dose: 800.0 mg/kg/injection, schedule: Q04DX003 (ip), vehicle: saline with Tween-80) 97 % of control.

`O=C1C2=C(Nc3cc([N+](=O)[O-])ccc3N2)OC1c1ccc(C2OC3=C(Nc4ccc([N+](=O)[O-])cc4N3)C2=O)cc1` (stereo unspecified): the T/C reads like this: (dose: 60.0 mg/kg/injection, schedule: Q01DX005 (ip), vehicle: Klucel (hydroxypropylcellulose) (HPC)) 102 % of control; (dose: 120.0 mg/kg/injection, schedule: Q01DX005 (ip), vehicle: Klucel (hydroxypropylcellulose) (HPC)) 96 % of control; (dose: 240.0 mg/kg/injection, schedule: Q01DX005 (ip), vehicle: Klucel (hydroxypropylcellulose) (HPC)) 99 % of control.

As for `CC12CCC(C/C1=N\[N+](=O)[O-])C2(C)C` (stereo unspecified), the T/C (dose: 12.5 mg/kg/injection, schedule: Q01DX009 (ip), vehicle: suspension in saline) is 96 % of control; the T/C (dose: 25.0 mg/kg/injection, schedule: Q01DX009 (ip), vehicle: suspension in saline) was 97 % of control; the T/C under setting [7] was 100 % of control; the T/C (dose: 50.0 mg/kg/injection, schedule: Q01DX009 (ip), vehicle: suspension in saline) was 97 % of control; the T/C under setting [9] is 90 % of control.

On to `COc1cc2c(cc1OC(C)=O)C(=O)C(Br)(Br)CCC2`, for which the T/C was 98 % of control (dose: 15.0 mg/kg/injection, schedule: Q01DX009 (ip), vehicle: saline with Tween-80); 103 % of control under setting [2]; 106 % of control (dose: 30.0 mg/kg/injection, schedule: Q01DX009 (ip), vehicle: saline with Tween-80); 100 % of control and 116 % of control under setting [3]; 100 % of control (dose: 60.0 mg/kg/injection, schedule: Q01DX009 (ip), vehicle: saline with Tween-80); 99 % of control under setting [4]. In addition, the T/C under setting [13] was 106 % of control.

Turning to `O=C(Nc1ccccc1)/C(Cl)=C1/Sc2ccccc2NC1=O`, the T/C was 104 % of control (dose: 60.0 mg/kg/injection, schedule: Q01DX005 (ip), vehicle: saline with Tween-80); 107 % of control (dose: 120.0 mg/kg/injection, schedule: Q01DX005 (ip), vehicle: saline with Tween-80); 99 % of control (dose: 240.0 mg/kg/injection, schedule: Q01DX005 (ip), vehicle: saline with Tween-80).

In the case of `COC1CC(N)C(OS(C)(=O)=O)C(C)O1` (stereo unspecified), the T/C is 99 % of control (dose: 12.5 mg/kg/injection, schedule: Q04DX003 (ip), vehicle: water); 99 % of control (dose: 25.0 mg/kg/injection, schedule: Q04DX003 (ip), vehicle: water); 114 % of control (dose: 50.0 mg/kg/injection, schedule: Q04DX003 (ip), vehicle: water); 114 % of control (dose: 100.0 mg/kg/injection, schedule: Q04DX003 (ip), vehicle: water); 105 % of control (dose: 200.0 mg/kg/injection, schedule: Q04DX003 (ip), vehicle: water).

For `COc1ccc(-c2cc(=O)c3c(O)cc(O)cc3o2)cc1`, the T/C was 90 % of control under setting [3]; 90 % of control under setting [4]; 90 % of control under setting [11]; 110 % of control under setting [13]; 90 % of control under setting [12].
